Data set [1] deals with spiral ganglion neurons. In words: Auditory safety: density of spiral ganglion neurons. It counts as in vivo, guinea pigs. The note with it: guinea pig, in vivo, sc, 100 mg/kg. The method, then: Healthy adult guinea pigs (150-250 g) were employed as the research objects, and were randomly divided into saline control group, gentamicin group, compound Plazomicin group and Compound 1 group, with 8 animals in each group. Subcutaneous administration is used, and the following assays were carried out during and after the administration for 14 consecutive days: • 1. To analyze the effects of different drugs on the auditory function of guinea pigs, the compound action potential (CAP) of animals was recorded on the 14th day (29th day, i.e., 4 weeks) after administration. The results obtained were analyzed and the changes of the threshold shift, amplitude, latency and other indicators among different treatment groups were compared. • 2. After the different groups of animals were processed and the auditory function data thereof were collected, the cochlea of the animals was taken out for fixation and staining. Surface preparation of basilar membrane of the cochlea on one side was performed to count the loss of hair cells so as to make a cochlea map, and the cochlea on the other side was decalcified and frozen sectioned. The density of spiral ganglion neurons was counted and compared among groups. Research Results: 1. Administration Method and Treatment
Gentamicin from Dalian Meilun Biotechnology Co., Ltd., and Plazomicin and Compound 1 from WuXi AppTec (WuHan) Co., Ltd. are used, the solution of which were prepared just before use each time by using saline for dissolution to the concentration of 50 mg/mL, and the injection dose was 100 mg/kg body weight. Method: subcutaneous injection, and confirmation of no liquid leakage after each injection.
The cochlea of the guinea pig was defined as Turn 1, Turn 2, Turn 3, and Turn 4 from the basal to the apical turn. The spiral ganglion neurons (SGNs) were stained with TuJ on frozen sections, and the density thereof in a specific area were counted and compared between groups. […] Through the two-way ANOVA, there was a significant difference between the groups, F(3, 74)=35.43, p<0.0001 (see FIG. 7).

A short description of data set [2]: Study on pharmacokinetics in mice. It counts as in vivo, CD-1 mice. Particulars: mouse, plasma, CD-1 male mice, 1 mg/kg single intravenous injection. How it is done:
CD-1 male mice aged 7 to 10 weeks were selected and treated by intravenous administration at the dose of 1 mg/kg. The mice were fasted for at least 12 hours before the administration, and resumed feeding 4 hours after the administration. The mice were free to drink during the entire experiment.
On the day of the experiment, the animals in the intravenous group were administered with corresponding compound by a single injection via tail vein with an administration volume of 5 mL/kg. The animals were weighed before the administration, and the administration volume was calculated based on the body weight. The sample collection time was: 0.083, 0.25, 0.5, 1, 2, 4, 8, and 24 h. Approximately 30 μL whole blood was collected through the saphenous vein at each time point to prepare plasma for high performance liquid chromatography-tandem mass spectrometry (LC-MS/MS) to determine the concentration.
All animals were subjected to euthanasia under CO2 anesthesia after the PK samples at the last time point were collected. The non-compartmental model of the pharmacokinetic software WinNonlin™ Version 6.3 (Pharsight, Mountain View, CA) was used to process the data of plasma concentration, and the linear log-trapezoidal method was used to calculate the pharmacokinetic parameters.

A short description of data set [3]: Evaluation of pharmacokinetics in rats. It counts as in vivo. The note with it: rat, plasma, male SD rats, 150 mg/kg single intravenous drop infusion for 30 minutes. How it is done: • 1) Experimental drug: Compound 1; • 2) Experimental animals: 3 male SD rats aged 7-9 weeks; • 3) Drug preparation: An appropriate amount of the drug was weighed and dissolved in saline to forma 60 mg/mL solution. Experimental Operation:
Animals were administered the drug at a dose of 150 mg/kg and a concentration of 60 mg/mL by a single intravenous drop infusion via the tail vein for 30 minutes. Plasma samples were collected from the animals at 0, 0.0333, 0.0833, 0.25, 0.5, 1, 2, 4, 6, 8 and 24 hours after administration. The LC-MS/MS method was used to determine the drug concentration in the plasma sample, and the kinetic parameters of the tested drug are shown in Table 2: […]

For data set [4], the system named is HK-2 cells. Nature of the data set: Toxicity test on HK-2 cells (Alma Blue). It counts as cell-based. The method, then:
(§1) On the day of the experiment, when the HK-2 cells in the culture flask reached 80%-90% confluent, the culture medium was discarded, the cells were washed twice with Dulbecco's phosphate buffered saline (DPBS) and digested for 1 to 2 minutes with 3 mL trypsin (T150 cell culture flask), and immediately 9 ml complete medium (RPMI1640+10% FBS) were added to terminate the digestion. After termination, single cells suspension were formed by pipetting gently, which were centrifuged at 1000 […] for 5 minutes. The supernatant was discarded, and fresh complete medium were added, and the cells were pipetted evenly. The actual cell density was measured according to the cell counter and the cell suspension was adjusted to 2.5×10^5 cells/mL. 80 μL of cell suspension was drawn by a row pipettor and added into a 96-well black bottom plate (2×10^4 cell/well), and then incubated in a carbon dioxide incubator for 4.5 hours, which was defined as a cell plate.
(§2) • a. The compound mother liquor was prepared according to the following table, with complete medium as the solvent;
(§3) • b. 50 microliters of complete medium was added into columns 3-11 in the 96-v well plate; • c. 75 microliters of test compound (50 mg/mL) and positive control were added to the second column of the 96-v well plate; • d. 25 microliters of compound was drawn from the second column and added into the third column, blown and sucked a few times by a row pipettor, then 25 microliters of liquid was drawn from the third column and added to the fourth column, and subsequently subjected to a 3-fold series dilution until the 10th column. From column 2 to column 11, the compound concentration was 50, 16.67, 5.56, 1.85, 0.62, 0.21, 0.07, 0.02, 0.008, 0 mg/mL; • e. 20 μL compound solutions of various concentrations prepared were transferred by a row pipettor to the corresponding wells of the cell plate, which was defined as a testing plate. Culture of the Testing Plate:
(§4) All the plates were incubated in an incubator at 37° C., 5% CO2 for 43 hours.
(§5) After incubation, 10 microliters of Alma Blue was added to the testing plate. The testing plate was immediately incubated in an incubator at 37° C., 5% CO2 for 3 hours. Then the fluorescence value of each well of the testing plate was read by a microplate reader (wavelength Ex 540 nm/Em 585 nm). Then prism software was used to simulate the curve to calculate CC50 value.

Data set [5] can be described thus: Toxicity test on HK-2 cells (Alma Blue). It counts as cell-based. Particulars: human, 43 hours incubation plus 3 hours Alma Blue, read-out: CC50 of HK-2 cell. The method, then: as §1, §2, §3, §4, §5
Setting [6] is: read-out: Area Under the Curve AUC.
The mark [7] stands for this setting: read-out: Half-Life T1/2 (converted).
[8] abbreviates: read-out: Maximum Concentration Cmax.
The mark [9] stands for this setting: read-out: Volume of Distribution Vd.

`CN[C@@H]1[C@@H](O)[C@@H](O[C@@H]2[C@@H](O)[C@H](O[C@H]3OC(CNCCOCCONC(=N)N)=CC[C@H]3N)[C@@H](N)C[C@H]2NC(=O)[C@@H](O)CCN)OC[C@]1(C)O` [Compound 1]: in data set [1], the “damage to spiral ganglion neurons (SGN density vs Control group)” value is “no damage to spiral ganglion neurons”. Moreover, the figures for the area under the curve (AUC) in data set [2] (setting [6]) and in data set [3] (setting [6]) were 1.92 µM·h and 440 µM·h, respectively. Besides, the clearance in data set [2] (read-out: Clearance Rate Cl) is 15.1 mL/min/kg; in data set [3] (read-out: Clearance Rate Cl), 9.48 mL/min/kg. Also, the values for the half-life in data set [2] (setting [7]) and in data set [3] (setting [7]) were 0.396 h and 3.62 h, respectively. The Cmax in data set [2] (setting [8]) was found to be 7.09 µM; in data set [3] (setting [8]), 316 µM. Moreover, the distribution volume (Vd) was found to be 0.369 L/kg in data set [2] (setting [9]) and 1.5 L/kg in data set [3] (setting [9]). In addition, the “toxicity to HK-2 cells compared with Netilmicin and Amikacin” value in data set [4] was “significantly lower than that of Netilmicin and Amikacin”. In data set [4] (43 hours incubation plus 3 hours Alma Blue), the Maximum inhibition rate is reported as 21.96%. The “toxicity to HK-2 cells compared with Plazomicin” value in data set [4] (toxicity regression curve and software prediction (FIG. 8-11)) was “lower than Plazomicin”. The CC50 at 43 h in data set [5] is over 10000 µg/mL.

By AUC is commonly meant concentration integrated over time. As a reminder, the clearance is a measure of how efficiently the substance is removed, as volume per time. As usually defined, the Vd is a proportionality between amount in the body and measured concentration, not a real space. The term CC50 denotes the concentration at which the toxic effect on the cells reaches its halfway point.
